Results as given in US6737383B1, “Herbicidal oxadiazolidines” (priority 1999, dated 2004).

Key:
giant foxtail = test: Test B pre/postemergence giant foxtail; assay type: in vivo, Setaria faberii
Method in brief: (§1)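 Test chemicals in a non-phytotoxic solvent mixture with surfactant were sprayed preemergence onto planted seeds and postemergence onto plants 2 to 18 cm tall (1- to 4-leaf stage). After twelve to sixteen days in a greenhouse, injury was visually rated against untreated controls from 0 (no effect) to 10 (complete control).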

blackgrass = test: Test B pre/postemergence blackgrass; assay type: in vivo, Alopecurus myosuroides
Method in brief: as §1

morningglory = test: Test B pre/postemergence morningglory; assay type: in vivo, Ipomoea hederacea
Method in brief: as §1

duck salad = test: Test B flood test duck salad; assay type: in vivo, Heteranthera limosa
Method in brief: (§2)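 Read-out is a visual response score from 0 (no effect) to 10 (complete control), assigned by comparison with untreated controls. Treatment was applied at the 2-leaf stage, and plants stayed in the greenhouse for twelve to sixteen days before scoring.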

crabgrass = test: Test B pre/postemergence crabgrass; assay type: in vivo, Digitaria sanguinalis
Method in brief: as §1

cocklebur = test: Test B pre/postemergence cocklebur; assay type: in vivo, Xanthium strumarium
Method in brief: as §1

purple nutsedge = test: Test B pre/postemergence purple nutsedge; assay type: in vivo, Cyperus rotundus
Method in brief: as §1

surinam grass = test: Test B pre/postemergence surinam grass; assay type: in vivo, Brachiaria decumbens
Method in brief: as §1

velvetleaf = test: Test B pre/postemergence velvetleaf; assay type: in vivo, Abutilon theophrasti
Method in brief: as §1

wild oat = test: Test B pre/postemergence wild oat; assay type: in vivo, Avena fatua
Method in brief: as §1

sugar beet = test: Test B pre/postemergence sugar beet; assay type: in vivo, Beta vulgaris
Method in brief: as §1

wheat = test: Test B pre/postemergence wheat; assay type: in vivo, Triticum aestivum
Method in brief: as §1

rice = test: Test B flood test rice; assay type: in vivo, Oryza sativa
Method in brief: as §2

pigweed = test: Test B pre/postemergence pigweed; assay type: in vivo, Amaranthus retroflexus
Method in brief: as §1

bamyardgrass = test: Test B flood test barnyardgrass; assay type: in vivo, Echinochloa crus-galli
Method in brief: as §2

bedstraw = test: Test B pre/postemergence bedstraw; assay type: in vivo, Galium aparine
Method in brief: as §1

[1] = Postemergence, Rate 125 g/ha, scale of 0 to 10 where 0 is no effect and 10 is complete control
[2] = Preemergence, Rate 62 g/ha, scale of 0 to 10 where 0 is no effect and 10 is complete control
[3] = Preemergence, Rate 125 g/ha, 0 is no effect, 10 is complete control
[4] = Preemergence, Rate 250 g/ha, scale 0 to 10, 0 is no effect, 10 is complete control
[5] = Preemergence, Rate 500 g/ha, scale 0 to 10 (0 no effect, 10 complete control)
[6] = Rate 62 g/ha, Postemergence, scale of 0 to 10 where 0 is no effect and 10 is complete control
[7] = Rate 250 g/ha, Postemergence, scale 0 to 10, 0 is no effect, 10 is complete control
[8] = Rate 500 g/ha, Postemergence, scale 0 to 10
[9] = Rate 62 g/ha, headed Pre-emergence (flood test species), scale 0 to 10 (0 no effect, 10 complete control)
[10] = Rate 125 g/ha, Pre-emergence, flood test species, scale 0 to 10 where 0 is no effect and 10 is complete control
[11] = Rate 250 g/ha, Pre-emergence, flood-test species, scale 0 to 10, 0 is no effect, 10 is complete control
[12] = Rate 500 g/ha, headed Pre-emergence (flood test species), scale 0 to 10 (0 no effect, 10 complete control)

CCN(Cc1ccccc1)C(=O)n1oc(=O)n(C(C)C)c1=O [Compound 166]
8: Blackgrass plant response rating (blackgrass; [8])
5: Giant foxtail plant response rating (0 to 10 scale) (giant foxtail; [3]) | Giant foxtail plant response rating (giant foxtail; [4]) | Blackgrass plant response rating (blackgrass; [5]) | Velvetleaf plant response rating (velvetleaf; [4]) | Bedstraw plant response rating (bedstraw; [8])
2: Plant response rating, Morningglory (morningglory; [7]) | Morningglory plant response rating (morningglory; [8]) | Wild oats plant response rating (wild oat; [5]) | Wild oats plant response rating (wild oat; [8]) | Plant response rating, Redroot pigweed (pigweed; [7])
4: Giant foxtail plant response rating (giant foxtail; [8]) | Blackgrass plant response rating (blackgrass; [1]) | Blackgrass plant response rating (blackgrass; [4]) | Crabgrass plant response rating (crabgrass; [2]) | Crabgrass plant response rating (0 to 10 scale) (crabgrass; [3]) | Crabgrass plant response rating (crabgrass; [8]) | B. signalgrass plant response rating (surinam grass; [5])
3: Giant foxtail plant response rating (giant foxtail; [2]) | Plant response rating, Crabgrass (crabgrass; [7]) | Wheat plant response rating (wheat; [8]) | Redroot pigweed plant response rating (pigweed; [8])
0: Giant foxtail plant response rating (giant foxtail; [1]) | Giant foxtail plant response rating (giant foxtail; [6]) | Blackgrass plant response rating (blackgrass; [2]) | Blackgrass plant response rating (0 to 10 scale) (blackgrass; [3]) | Blackgrass plant response rating (blackgrass; [6]) | Morningglory plant response rating (morningglory; [2]) | Morningglory plant response rating (0 to 10 scale) (morningglory; [3]) | Morningglory plant response rating (morningglory; [4]) | Morningglory plant response rating (morningglory; [5]) | Ducksalad plant response rating (duck salad; [9]) | Ducksalad plant response rating (duck salad; [10]) | Ducksalad plant response rating (duck salad; [11]) | Plant response rating, Ducksalad (duck salad; [12]) | Crabgrass plant response rating (crabgrass; [6]) | Cocklebur plant response rating (cocklebur; [1]) | Cocklebur plant response rating (cocklebur; [2]) | Cocklebur plant response rating (0 to 10 scale) (cocklebur; [3]) | Cocklebur plant response rating (cocklebur; [4]) | Cocklebur plant response rating (cocklebur; [5]) | Cocklebur plant response rating (cocklebur; [6]) | Plant response rating, Cocklebur (cocklebur; [7]) | Cocklebur plant response rating (cocklebur; [8]) | Nutsedge plant response rating (purple nutsedge; [1]) | Nutsedge plant response rating (0 to 10 scale) (purple nutsedge; [3]) | Nutsedge plant response rating (purple nutsedge; [4]) | Nutsedge plant response rating (purple nutsedge; [5]) | Nutsedge plant response rating (purple nutsedge; [6]) | Plant response rating, Nutsedge (purple nutsedge; [7]) | Nutsedge plant response rating (purple nutsedge; [8]) | B. signalgrass plant response rating (surinam grass; [1]) | B. signalgrass plant response rating (surinam grass; [2]) | B. signalgrass plant response rating (0 to 10 scale) (surinam grass; [3]) | B. signalgrass plant response rating (surinam grass; [4]) | B. signalgrass plant response rating (surinam grass; [6]) | Plant response rating, B. signalgrass (surinam grass; [7]) | B. signalgrass plant response rating (surinam grass; Rate 500 g/ha, Postemergence, scale 0 to 10, 0 no effect, 10 complete control) | Velvetleaf plant response rating (velvetleaf; [2]) | Velvetleaf plant response rating (0 to 10 scale) (velvetleaf; [3]) | Plant response rating, Velvetleaf (velvetleaf; [7]) | Velvetleaf plant response rating (velvetleaf; [8]) | Wild oats plant response rating (wild oat; [2]) | Wild oats plant response rating (0 to 10 scale) (wild oat; [3]) | Wild oats plant response rating (wild oat; [4]) | Plant response rating, Wild oats (wild oat; [7]) | Sugarbeets plant response rating (sugar beet; [1]) | Sugarbeets plant response rating (sugar beet; [2]) | Sugarbeets plant response rating (0 to 10 scale) (sugar beet; [3]) | Sugarbeets plant response rating (sugar beet; [4]) | Sugarbeets plant response rating (sugar beet; [5]) | Sugarbeets plant response rating (sugar beet; [6]) | Plant response rating, Sugarbeets (sugar beet; [7]) | Sugarbeets plant response rating (sugar beet; [8]) | Wheat plant response rating (wheat; [2]) | Wheat plant response rating (0 to 10 scale) (wheat; [3]) | Wheat plant response rating (wheat; [4]) | Wheat plant response rating (wheat; [5]) | Plant response rating, Wheat (wheat; [7]) | Rice plant response rating (rice; [9]) | Rice plant response rating (rice; [10]) | Rice plant response rating (rice; [11]) | Plant response rating, Rice (rice; [12]) | Redroot pigweed plant response rating (pigweed; [1]) | Redroot pigweed plant response rating (pigweed; [2]) | Redroot pigweed plant response rating (0 to 10 scale) (pigweed; [3]) | Redroot pigweed plant response rating (pigweed; [4]) | Redroot pigweed plant response rating (pigweed; [5]) | Redroot pigweed plant response rating (pigweed; [6]) | Barnyardgrass plant response rating (bamyardgrass; [9]) | Barnyardgrass plant response rating (bamyardgrass; [10]) | Barnyardgrass plant response rating (bamyardgrass; [11]) | Plant response rating, Barnyardgrass (bamyardgrass; [12]) | Bedstraw plant response rating (bedstraw; [1]) | Bedstraw plant response rating (bedstraw; [2]) | Bedstraw plant response rating (0 to 10 scale) (bedstraw; [3]) | Bedstraw plant response rating (bedstraw; [4]) | Bedstraw plant response rating (bedstraw; [5]) | Bedstraw plant response rating (bedstraw; [6])
6: Velvetleaf plant response rating (velvetleaf; [5])
1: Plant response rating, Giant foxtail (giant foxtail; [7]) | Morningglory plant response rating (morningglory; [1]) | Morningglory plant response rating (morningglory; [6]) | Crabgrass plant response rating (crabgrass; [1]) | Plant response rating, Bedstraw (bedstraw; [7])
7: Giant foxtail plant response rating (giant foxtail; [5]) | Plant response rating, Blackgrass (blackgrass; [7]) | Crabgrass plant response rating (crabgrass; [4]) | Crabgrass plant response rating (crabgrass; [5])
